Results on 4 molecules are retold here after patent publication US10640545B2 (THE GOVERNORS OF THE UNIVERSITY OF ALBERTA, priority 2017, dated 2020).

Data set [1] has as its target Human plasma kallikrein KLKB1 (Homo sapiens, UniProt P03952). The experiment in a line: Plasma kallikrein KLKB1 qualitative cleavage assay (MALDI-TOF). How it is done:
Native apelin-17 (2) and apelin peptides 5, 56, 57, 58 and 59 were dissolved in Milli-Q water (1 mM). Human plasma kallikrein KLKB1 were each reconstituted in Tris buffer (100 mM TrisHCl, 10 mM CaCl2), 150 mM NaCl) and diluted with Tris buffer (50 mM TrisHCl, 250 mM NaCl) to give a KLKB1 concentration of […]. The KLKB1 enzyme was then preincubated at 37° C. for 10 minutes prior to the addition of 5 μL of apelin peptide (1 mM). Aliquots (1 μL) were taken at 1, 2, 4, 6, 12, 24, 36, and 48 hours and analyzed with MALDI-TOF mass spectrometry to qualitatively determine the time point at which degradation products could be observed (Table 4).

In the next data set the target is neprilysin (NEP) (Homo sapiens, UniProt P08473). The experiment in a line: in vitro. The conditions noted are these: human, pH 7.5. How it is done:
This experiment compared the in vitro NEP stability of the Arg/Leu peptides of the embodiments to native apelin isoforms and their A2 substituted counterparts. Peptides were incubated with recombinant human NEP (rhNEP, Sino Biological) at 37° C. for up to 72 h, and the extent of degradation was analyzed via LC-MS because of the overlapping elution patterns of peptide fragments. […] (McKinnie, S. M. K., et al. ChemBioChem: 17, 1495-1498 (2016)). […] (Dion, N., et al., Biochem. J.: 311, 623-627 (1995); Bateman Jr., R. C., et al., J. Biol. Chem.: 264, 6151-6157 (1989); McMurray, J. J. et al., J. Med.: 371, 993-1004 (2014)).
Apelin peptides were dissolved in Milli-Q water (1 mM). Recombinant human neprilysin (rhNEP, Sino Biological) was reconstituted in Tris buffer (100 mM Tris, 100 mM NaCl, 10 μM ZnCl2, pH 7.5). To initiate the assay, rhNEP was diluted in Tris buffer (3.1 nM final concentration), and preincubated at 37° C. for 10 minutes prior to the addition of 5 μL of apelin peptide (1 mM) and 1.5 μL internal standard dansyl-Tyr-Val-Gly-OH (1 mM). Aliquots (10 μL) were removed at 0, 1, 4, 24, and 72 h, quenched with 0.1 M EDTA (10 μL), diluted to 100 μL with Milli-Q water and analyzed by LC-MS. Assays were performed in triplicate (n=3) for each time point. Integrated peak areas of the parent apelin peptide and internal standard derived from LC-MS analyses, were extracted using Mass Hunter software (version B.04.00) and compared in positive extracted ion count modus (+EIC, extracted-ion chromatogram). […] (apelin:dansyl-YVG), to the same ratio at the different assay time points. The decrease in apelin:dansyl-YVG ratio was converted to a percentage of cleaved peptide over time.
The extent of degradation was analyzed via LC-MS because of the overlapping elution patterns of peptide fragments (NEP).
Native apelin-17 (2) and apelin peptides 5, 54, 56, 57, 58 and 59 were dissolved in Milli-Q water (1 mM). Recombinant human neprilysin (rhNEP, Sino Biological) was reconstituted in Tris buffer (100 mM Tris, 100 mM NaCl, 10 μM ZnCl2, pH 7.5). To initiate the assay, rhNEP was diluted in Tris buffer (3.1 nM final concentration) and preincubated at 37° C. for 10 min prior to the addition of 5 μL of apelin peptide (1 mM) and 1.5 μL of internal standard dansyl-Tyr-Val-Gly-OH (1 mM). Aliquots (10 μL) were removed at 0, 1, 4, 24, and 72 h, quenched with 0.1 M EDTA (10 μL), diluted to 100 μL with Milli-Q water, and analyzed by LC-MS. Assays were performed in triplicate (n=3) for each time point. Integrated peak areas of the parent apelin peptide and internal standard derived from LC-MS analyses were extracted using Mass Hunter software (version B.04.00) and compared in positive extracted ion count modus (+EIC). The extent of proteolysis was determined by comparing the initial (0 h) ratio of the integrated extracted ions of the parent apelin peptide to the internal dansyl-YVG standard (apelin/dansyl-YVG) to the same ratio at the different assay time points. The decrease in apelin/dansyl-YVG ratio was converted to a percentage of cleaved peptide over time.

For data set [2], the target named is T1, KLKB1 (plasma kallikrein) (Homo sapiens, UniProt P03952).
T1 construct: purchased Novoprotein
The experiment in a line: In vitro KLKB1 stability (half-life). It counts as in vitro ADME. The conditions noted are these: human.

A short description of another data set: in vitro. The conditions noted are these: human, plasma.
The next data set addresses KLKB1 (Homo sapiens, UniProt P03952). Nature of the data set: Kinetic parameters for KLKB1 cleavage. Type of data set: biochemical. Further details: purchased Novoprotein. Conditions: enzyme KLKB1.
Data set [3] has as its target T2, wild-type rat apelin receptor (Rattus norvegicus, UniProt Q9JHG3).
T2 construct: expressed in transfected cells
T2 sequence (Q9JHG3 1-377): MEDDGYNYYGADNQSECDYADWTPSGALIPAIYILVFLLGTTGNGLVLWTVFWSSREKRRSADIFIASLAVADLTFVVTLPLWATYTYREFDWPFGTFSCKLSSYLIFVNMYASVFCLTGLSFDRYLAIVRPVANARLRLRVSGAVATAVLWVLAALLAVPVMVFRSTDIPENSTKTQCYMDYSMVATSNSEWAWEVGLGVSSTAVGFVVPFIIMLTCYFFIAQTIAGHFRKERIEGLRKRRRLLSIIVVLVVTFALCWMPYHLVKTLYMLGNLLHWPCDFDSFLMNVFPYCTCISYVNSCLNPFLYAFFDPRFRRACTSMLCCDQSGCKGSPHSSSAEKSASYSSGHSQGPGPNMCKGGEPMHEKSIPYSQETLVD
Nature of the data set: Radioligand binding, displacement of [125I]-pyr-1-apelin-13 on CHO cell membranes. How it is done: This experiment evaluated the ability of peptides of the present embodiments to bind to the wild-type rat apelin receptor, in order to examine the impact of synthetic modification within the critical RPRL motif of the apelin peptides.
Membrane preparations from CHO cells stably expressing the wild-type rat apelin receptor-EGFP were prepared as previously described (Gerbier et al., New Structural Insights Into The Apelin Receptor: Identification Of Key Residues For Apelin binding; FASEB J. 2015, 29, 314-322; Iturrioz et. al., Development Of Original Metabolically-Stable Apelin-17 Peptides With Diuretic And Cardiovascular Effects; FASEB J. 2017, 31, 687-700.) Crude membrane preparations (1 μg total mass of membranes/assay) were incubated for 3 h at 20° C. with 0.2 nM [^125I]-pyr-1-apelin-13 (monoiodinated on Lys^8 with Bolton-Hunter reagent, Perkin Elmer, Wellesley, Mass., USA) in binding buffer (50 mM HEPES, 5 mM MgCl2 1149 pH 7.5, BSA 1%) alone or in presence of the different compounds at various concentrations. The reaction was stopped by adding 4 mL of cold binding buffer, filtered on Whatman GF/C filters and washed with 5 mL of cold binding buffer. Radioactivity was then counted using a Wizard 1470 Wallac gamma counter (Perkin Elmer, Turku, Finland). Binding experiment data were analyzed with Graph Pad Prism.
For orientation: In a radioligand displacement assay an active substance lowers the binding of a labelled ligand.

Another data set has as its system isolated rat hearts. Nature of the data set: Langendorff isolated heart, ischemia-reperfusion injury. The conditions noted are these: ex vivo heart, 30 min ischemia, peptide at start of reperfusion for 10 min at 1 pM. How it is done:
The ex vivo heart was assessed for a variety of parameters (heart rate (HR); left ventricle developed pressure (LVDP); maximum derivative of change in systolic pressure over time (max dP/dt); minimum derivative of change in diastolic pressure over time (min dP/dt); and rate-pressure product (RPP)) indicative of general heart function and performance (FIG. 11).
Langendorff heart perfusion and ischemia-reperfusion injury were prepared and cardiac function was measured. Mice were heparinized and anaesthetized with 1.5-2% isoflurane inhalation. The heart was excised, mounted on a Langendorff system, and perfused at a consistent pressure of 80 mmHg with modified Krebs-Henseleit solution (116 mM NaCl, 3.2 mM KCl, 2.0 mM CaCl2), 1.2 mM MgSO4, 25 mM NaHCO3, 1.2 mM KH2PO4, 11 mM glucose, 0.5 mM EDTA and 2 mM pyruvate), which was kept at 37° C. and continuously oxygenated with 95% O2 and 5% CO2 which maintained the perfusion buffer at pH 7.4. After stabilization and 10 min baseline recording, global ischemia was induced for 30 min followed by 40 min of reperfusion. Apelin 17 (2) or apelin peptides (11, 17, 18, or 19) were given at the start of reperfusion for 10 min at a concentration of 1 pM. Left ventricular functions were obtained continuously by PowerLab system (ADInstruments, Australia). Data was reported as mean value of every 5 min. Left ventricular functions were reported as: Left Ventricular Developed Pressure (LVDP); Heart rate (HR); maximum derivative of change in systolic pressure over time (max dP/dt); minimum derivative of change in diastolic pressure over time (min dP/dt); and Rate Pressure Product (RPP).

*1 amine or outer side, *2 acyl side, *3 side chain or, on linkers, in order; H or OH if unused. Where a SMILES comes first, the peptide text is derived from it. [ ]: non-standard residue; d: D form. The star is where a group is joined. Phe(4-Br) = N[C@@H](Cc1ccc(Br)cc1)C(=O)O; azaLeu = CC(C)CN(N[*:1])C(=O)[*:2]; Palmitoyl = CCCCCCCCCCCCCCCC(=O)*; NMeL = CN[C@@H](CC(C)C)C(=O)O; pGlu = O=C1CC[C@@H](C(=O)O)N1; Nle = CCCC[C@H](N)C(=O)O; Aib = CC(C)(N)C(=O)O

neprilysin (NEP), sequence (P08473 whole entry, the tested form may be a part, canonical isoform): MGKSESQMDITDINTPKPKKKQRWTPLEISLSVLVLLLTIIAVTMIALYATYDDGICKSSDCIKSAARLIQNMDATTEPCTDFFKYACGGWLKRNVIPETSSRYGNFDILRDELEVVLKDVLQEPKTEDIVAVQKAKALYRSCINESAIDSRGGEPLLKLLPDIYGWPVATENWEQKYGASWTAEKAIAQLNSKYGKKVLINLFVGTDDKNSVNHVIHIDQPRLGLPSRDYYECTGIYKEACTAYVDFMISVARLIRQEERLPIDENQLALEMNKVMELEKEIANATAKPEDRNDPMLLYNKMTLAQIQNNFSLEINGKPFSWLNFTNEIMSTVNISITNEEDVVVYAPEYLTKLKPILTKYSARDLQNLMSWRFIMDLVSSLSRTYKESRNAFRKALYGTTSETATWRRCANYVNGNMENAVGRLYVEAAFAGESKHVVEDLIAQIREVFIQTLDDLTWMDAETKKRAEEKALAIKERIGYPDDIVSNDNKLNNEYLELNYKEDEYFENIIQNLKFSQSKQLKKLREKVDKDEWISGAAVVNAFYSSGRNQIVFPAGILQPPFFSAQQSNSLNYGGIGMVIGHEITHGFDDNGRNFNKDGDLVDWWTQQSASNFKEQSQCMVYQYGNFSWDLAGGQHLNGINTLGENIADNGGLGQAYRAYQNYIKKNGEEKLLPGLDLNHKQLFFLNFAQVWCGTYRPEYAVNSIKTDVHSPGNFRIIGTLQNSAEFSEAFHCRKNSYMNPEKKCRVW
Human plasma kallikrein KLKB1, sequence (P03952 20-638): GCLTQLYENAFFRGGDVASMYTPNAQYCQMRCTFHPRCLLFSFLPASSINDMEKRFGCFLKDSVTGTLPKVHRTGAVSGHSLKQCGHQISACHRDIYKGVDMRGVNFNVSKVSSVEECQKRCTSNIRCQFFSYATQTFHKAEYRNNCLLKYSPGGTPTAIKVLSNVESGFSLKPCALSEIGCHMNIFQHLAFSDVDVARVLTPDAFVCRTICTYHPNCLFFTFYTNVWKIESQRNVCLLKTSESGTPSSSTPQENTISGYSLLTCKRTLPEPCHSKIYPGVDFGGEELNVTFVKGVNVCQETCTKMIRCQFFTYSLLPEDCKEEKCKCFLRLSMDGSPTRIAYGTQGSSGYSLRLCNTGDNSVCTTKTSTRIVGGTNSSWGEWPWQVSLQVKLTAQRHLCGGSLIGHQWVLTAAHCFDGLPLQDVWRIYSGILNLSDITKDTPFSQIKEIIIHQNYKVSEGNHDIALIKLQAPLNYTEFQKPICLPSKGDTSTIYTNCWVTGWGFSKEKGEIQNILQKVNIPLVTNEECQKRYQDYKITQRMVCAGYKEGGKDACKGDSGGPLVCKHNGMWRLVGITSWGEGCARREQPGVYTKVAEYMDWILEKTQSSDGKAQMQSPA
T1 sequence (P03952 20-638): as above
KLKB1, sequence (P03952 20-638): as above

For `CCCCCCCCCCCCCCCC(=O)N[C@@H](CCCCN)C(=O)N[C@@H](Cc1ccccc1)C(=O)N[C@@H](CCCNC(=N)N)C(=O)N[C@@H](CCCNC(=N)N)C(=O)N[C@@H](CCC(N)=O)C(=O)N[C@@H](CCCNC(=N)N)C(=O)N1CCC[C@H]1C(=O)N[C@@H](CCCNC(=N)N)C(=O)N[C@@H](CC(C)C)C(=O)N[C@@H](CO)C(=O)N[C@@H](Cc1cnc[nH]1)C(=O)N[C@@H](CCCCN)C(=O)NCC(=O)N1CCC[C@H]1C(=O)N[C@@H](CCCC)C(=O)NC(C)(C)C(=O)N[C@@H](Cc1ccc(Br)cc1)C(=O)O` [Peptide 56] (Palmitoyl-KFRRQRPRLSHKGP[Nle][Aib][Phe(4-Br)]-OH), in data set [1], the “Degradation Onset Timepoint with KLKB1” value is 1 h. For the same molecule, the results for the half-life (on neprilysin (NEP); in data set [2]) were 1.5 h and 1 h, respectively.

For the molecule `CCCCCCCCCCCCCCCC(=O)N[C@@H](CCCCN)C(=O)N[C@@H](Cc1ccccc1)C(=O)N[C@@H](CCCNC(=N)N)C(=O)N[C@@H](CCCNC(=N)N)C(=O)N[C@@H](CCC(N)=O)C(=O)N[C@@H](CCCNC(=N)N)C(=O)N1CCC[C@H]1C(=O)N[C@@H](CCCNC(=N)N)C(=O)N(C)[C@@H](CC(C)C)C(=O)N[C@@H](CO)C(=O)N[C@@H](Cc1cnc[nH]1)C(=O)N[C@@H](CCCCN)C(=O)NCC(=O)N1CCC[C@H]1C(=O)N[C@@H](CCCC)C(=O)NC(C)(C)C(=O)N[C@@H](Cc1ccc(Br)cc1)C(=O)O` [Peptide 58] (Palmitoyl-KFRRQRPR[NMeL]SHKGP[Nle][Aib][Phe(4-Br)]-OH), in data set [1], the “Degradation Onset Timepoint with KLKB1” value worked out at 2 h. For the same molecule, the half-life at neprilysin (NEP) was more than 30 h; in data set [2] it was 2.1 h.

Regarding `CCCC[C@H](NC(=O)[C@@H]1CCCN1C(=O)CNC(=O)[C@H](CCCCN)NC(=O)[C@H](Cc1c[nH]cn1)NC(=O)[C@H](CO)NC(=O)[C@H](CC(C)C)NC(=O)[C@H](CCCNC(=N)N)NC(=O)[C@@H]1CCCN1C(=O)[C@H](CCCNC(=N)N)NC(=O)[C@H](CCC(N)=O)NC(=O)[C@H](CCCNC(=N)N)NC(=O)[C@H](CCCNC(=N)N)NC(=O)[C@H](Cc1ccccc1)NC(=O)[C@@H](N)CCCCN)C(=O)NC(C)(C)C(=O)N[C@@H](Cc1ccc(Br)cc1)C(=O)O` [Peptide 5] (H-KFRRQRPRLSHKGP[Nle][Aib][Phe(4-Br)]-OH; C-terminus assumed), in data set [1], the “Degradation Onset Timepoint with KLKB1” value is less than 0.5 h. For the same molecule, on neprilysin (NEP), the half-life is 1 h. This molecule also had a half-life in data set [2] of 0.7 h. In addition, in “in vitro”, the amount remaining at 0.5 h, 80 µM amounted to 43 ± 1% and the amount remaining at 1 h, 80 µM came out at 35 ± 5%. On KLKB1, the Km was determined as 30 ± 4 µM and the “kcat” value came out at 1.4 ± 0.2 s⁻¹.

As for `CCCC[C@H](NC(=O)[C@@H]1CCCN1C(=O)CNC(=O)[C@H](CCCCN)NC(=O)[C@H](Cc1c[nH]cn1)NC(=O)[C@H](CO)NC(=O)N(CC(C)C)NC(=O)[C@H](CCCNC(=N)N)NC(=O)[C@@H]1CCCN1C(=O)[C@H](CCCNC(=N)N)NC(=O)[C@@H]1CCC(=O)N1)C(=O)NC(C)(C)C(=O)N[C@@H](Cc1ccc(Br)cc1)C(=O)O` [Peptide 18, pGlu-Arg-Pro-Arg-azaLeu-Ser-His-Lys-Gly-Pro-Nle-Aib-paraBrPhe] ([pGlu]RPR[azaLeu]SHKGP[Nle][Aib][Phe(4-Br)]-OH; C-terminus assumed), the Ki in data set [3] (displacement of [125I]-pyr-1-apelin-13 (0.2 nM), CHO membranes, rat apelin receptor-EGFP, means ± SE, read-out: Affinity Ki) came out at 0.13 ± 0.063 nM. In addition, in data set [3] (rat apelin receptor), the “receptor binding affinity (in words)” value is “modest improvement in receptor binding”. In “in vitro”, this molecule showed a fraction remaining at 0.5 h, 80 µM of 19 ± 5% and a share remaining at 1 h, 80 µM of 2 ± 1%. Moreover, the “ability to rescue the heart from ischemic reperfusion injury” value in the data set with isolated rat hearts is “behaved comparably to that of the negative saline control”.

Usually half-life stands for the time in which the quantity being followed falls by half. Usually amount remaining stands for what is left of the initial amount, in per cent. Lower therefore signals more turnover. For orientation: Km means the concentration of substrate that gives half-maximal velocity. One may read the kcat as the maximal rate divided by the concentration of active sites. For orientation: Ki means the equilibrium dissociation constant of an inhibitor or competing ligand from its target.
